From patent US20230391774A1, “Novel Compounds” (AC Immune SA, priority 2020, published 2023)
Counter-ions that a name gives are not always drawn.

Target: T1, flTau aggregates (longest isoform of human Tau, 2N4R) (Homo sapiens, UniProt P10636)
T1 construct: 35 μM of recombinant full-length (fl) Tau in phosphate-buffered saline (PBS) were aggregated; purchased Biotechne; host or cells: bacteria
Test: Full-length Tau (flTau) disaggregation assay by Thioflavin T (ThT)
Format: biochemical
Details: ThT fluorescence; 60 nM flTau aggregates, 30 minutes at RT; read-out: flTau disaggregation EC50
Method: Full-Length Tau (flTau) Disaggregation Assay by Thioflavin T (ThT)
The longest isoform of human Tau (2N4R; 441 amino acids) was expressed in bacteria and purified (Biotechne). For the Tau disaggregation assay by ThT, 35 μM of recombinant full-length (fl) Tau in phosphate-buffered saline (PBS) were aggregated for 72 hours at 37° C. in presence of 35 μM of heparin (Sigma-Aldrich) and 10 mM of […] (Sigma-Aldrich) under shaking at 1000 RPM. Compound 1 was dissolved in anhydrous dimethyl sulfoxide (DMSO, Sigma-Aldrich) to reach a concentration of 2.5 mM. flTau aggregates and serial dilutions of compound 1 were mixed together in PBS (volume 50 μL) to a final concentration of 60 nM of flTau aggregates and from 20 to 0.0012 μM of Compound 1. The mixture was incubated for 30 minutes at room temperature (RT), then 40 μL of this mixture were transferred into a black 384-well plate assay (Perkin-Elmer) and mixed with 10 μL of 20 μM ThT in 250 mM glycine (both from Sigma-Aldrich) in PBS. Fluorescence (relative fluorescence units; RFU) was measured in monoplicate or duplicate on a Tecan reader (excitation: 440 nm; emission: 485 nm). Percentage of flTau disaggregation was then calculated and the half maximal effective concentration (EC50) was determined using GraphPad Prism version 8 (GraphPad Software) assuming a one-binding site fitting model, see Table 3 and Table 4.

T1 sequence (P10636 1-441 isoform P10636-8): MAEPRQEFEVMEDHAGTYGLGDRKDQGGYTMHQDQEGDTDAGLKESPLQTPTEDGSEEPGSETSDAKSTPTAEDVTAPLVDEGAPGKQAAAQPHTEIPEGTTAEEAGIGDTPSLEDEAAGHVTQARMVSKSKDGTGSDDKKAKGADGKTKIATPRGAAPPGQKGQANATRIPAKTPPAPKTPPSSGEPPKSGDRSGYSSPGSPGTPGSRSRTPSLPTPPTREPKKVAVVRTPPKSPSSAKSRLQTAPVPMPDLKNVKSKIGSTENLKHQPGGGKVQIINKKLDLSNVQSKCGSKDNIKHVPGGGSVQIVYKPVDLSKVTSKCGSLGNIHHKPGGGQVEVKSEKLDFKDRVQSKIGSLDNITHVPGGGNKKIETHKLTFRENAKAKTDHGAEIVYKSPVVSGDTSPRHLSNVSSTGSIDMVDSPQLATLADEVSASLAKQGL

Compound	EC50 [µM]
Fc1cnc2c(C3CCN(c4ccc5nc(N6CCOCC6)sc5c4)CC3)c[nH]c2c1 [Example 30, 4-(6-(4-(6-fluoro-1H-pyrrolo[3,2-b]pyridin-3-yl)piperidin-1-yl)benzo[d]thiazol-2-yl)morpholine]	< 1
O=C(Nc1ccc2oc(N3CCOCC3)nc2c1)c1c[nH]c2ccccc12 [Example 12, N-(2-morpholinobenzo[d]oxazol-5-yl)-1H-indole-3-carboxamide]	< 1
c1ccc2c(-c3ccn(-c4ccc5oc(N6CCOCC6)nc5c4)n3)n[nH]c2c1 [Example 10, 5-(3-(1H-indazol-3-yl)-1H-pyrazol-1-yl)-2-morpholinobenzo[d]oxazole]	< 1
COC1CCN(c2nc3cc(N4CCC(c5n[nH]c6ccccc56)CC4)ccc3o2)CC1 [Example 80, 5-(4-(1H-indazol-3-yl)piperidin-1-yl)-2-(4-methoxypiperidin-1-yl)benzo[d]oxazole]	1 to 10
FC1CN(c2ccc3oc(N4CCOCC4)nc3c2)CCC1c1n[nH]c2ccccc12 (stereo not shown) [Example 94, 5-(3-fluoro-4-(1H-indazol-3-yl)piperidin-1-yl)-2-morpholinobenzo[d]oxazole]	1 to 10
O=C(Nc1ccc2oc(N3CCOCC3)nc2c1)c1n[nH]c2ccccc12 [Example 18, N-(2-morpholinobenzo[d]oxazol-5-yl)-1H-indazole-3-carboxamide]	1 to 10
c1ccc2c(C3CCN(c4cnc5nc(N6CCOCC6)oc5c4)CC3)c[nH]c2c1 [Example 100, 6-(4-(1H-indol-3-yl)piperidin-1-yl)-2-morpholinooxazolo[4,5-b]pyridine]	1 to 10
Cc1cccc2[nH]nc(C3CCN(c4ccc5oc(N6CCOCC6)nc5c4)CC3)c12 [Example 93, 5-(4-(4-methyl-1H-indazol-3-yl)piperidin-1-yl)-2-morpholinobenzo[d]oxazole]	1 to 10

Other lines, results leading:

EC50 [µM]	Compound
< 1	Cn1cc(C2CCN(c3ccc4nc(N5CCOCC5)sc4c3)C2)c2cc(F)cnc21 (stereo not shown) [Example 82, 4-(6-(3-(5-fluoro-1-methyl-1H-pyrrolo[2,3-b]pyridin-3-yl)pyrrolidin-1-yl)benzo[d]thiazol-2-yl)morpholine]
1 to 10	c1ccc2c(C3CCN(c4cc5nc(N6CCOCC6)oc5cn4)CC3)c[nH]c2c1 [Example 48, 6-(4-(1H-indol-3-yl)piperidin-1-yl)-2-morpholinooxazolo[5,4-c]pyridine]
10 to 50	Cn1cc(C2CCN(c3ccc4oc(N5CCOCC5)nc4c3)CC2)c2ncc(F)cc21 [Example 105, 5-(4-(6-fluoro-1-methyl-1H-pyrrolo[3,2-b]pyridin-3-yl)piperidin-1-yl)-2-morpholinobenzo[d]oxazole]
1 to 10	Cn1cc(C2CCN(c3cc4nc(N5CCOCC5)oc4cn3)C2)c2cc(F)cnc21 (stereo not shown) [Example 86, 6-(3-(5-fluoro-1-methyl-1H-pyrrolo[2,3-b]pyridin-3-yl)pyrrolidin-1-yl)-2-morpholinooxazolo[5,4-c]pyridine]
1 to 10	Fc1cnc2[nH]cc(C3CCN(c4ccc5oc(N6CCOCC6)nc5c4)CC3)c2c1 [Example 22, 5-(4-(5-fluoro-1H-pyrrolo[2,3-b]pyridin-3-yl)piperidin-1-yl)-2-morpholinobenzo[d]oxazole]
< 1	Cn1cc(C2CCN(c3ccc4oc(N5CCOCC5)nc4n3)C2)c2cc(F)cnc21 (stereo not shown) [Example 91, 5-(3-(5-fluoro-1-methyl-1H-pyrrolo[2,3-b]pyridin-3-yl)pyrrolidin-1-yl)-2-morpholinooxazolo[4,5-b]pyridine]
< 1	Cn1cc(C2CCN(c3ccc4sc(N5CCOCC5)nc4c3)C2)c2cc(F)cnc21 (stereo not shown) [Example 81, 4-(5-(3-(5-fluoro-1-methyl-1H-pyrrolo[2,3-b]pyridin-3-yl)pyrrolidin-1-yl)benzo[d]thiazol-2-yl)morpholine]
< 1	Cn1cc(C2CCN(c3cnc4oc(N5CCOCC5)nc4c3)C2)c2cc(F)cnc21 (stereo not shown) [Example 85, 6-(3-(5-fluoro-1-methyl-1H-pyrrolo[2,3-b]pyridin-3-yl)pyrrolidin-1-yl)-2-morpholinooxazolo[5,4-b]pyridine]
< 1	c1ccc2c(C3CCN(c4ccc5oc(N6CCOCC6)nc5c4)C3)c[nH]c2c1 (stereo not shown) [Example 40, 5-(3-(1H-indol-3-yl)pyrrolidin-1-yl)-2-morpholinobenzo[d]oxazole]
1 to 10	Cc1ccc2c(C3CCN(c4ccc5oc(N6CCOCC6)nc5c4)CC3)n[nH]c2c1 [Example 77, 5-(4-(6-methyl-1H-indazol-3-yl)piperidin-1-yl)-2-morpholinobenzo[d]oxazole]
< 1	Fc1cccc2c(C3CCN(c4ccc5oc(N6CCOCC6)nc5c4)CC3)n[nH]c12 [Example 75, 5-(4-(7-fluoro-1H-indazol-3-yl)piperidin-1-yl)-2-morpholinobenzo[d]oxazole]

Target: T2, Tau K18 fragment aggregates (amino acids 244 to 372 of human Tau441) (Homo sapiens, UniProt P10636)
T2 construct: encompassing amino acids 244 to 372 of the longest isoform (2N4R) of human Tau441; purchased Biotechne; host or cells: bacteria
Test: Tau K18 disaggregation assay by ThT
Format: biochemical
Details: ThT fluorescence; 2 μM K18 aggregates, 30 minutes at RT
Method: Tau K18 Disaggregation Assay by ThT
The Tau K18 fragment, encompassing amino acids 244 to 372 of the longest isoform (2N4R) of human Tau441, was expressed in bacteria and purified (Biotechne). For the K18 disaggregation assay by ThT, 35 μM of recombinant K18 in PBS were aggregated for 24 hours at 37° C. in presence of 25 μM of heparin (Sigma-Aldrich) and 10 mM of 1,4-Dithiothreito (DTT from Sigma-Aldrich) under shaking at 750 RPM. Compound 1 was dissolved in anhydrous dimethyl sulfoxide (DMSO, Sigma-Aldrich) to reach a concentration of 10 mM. K18 aggregates and serial dilutions of compounds were mixed together in PBS (volume 50 μL) to a final concentration of 2 μM of K18 aggregates and from 400 to 0.1 μM of Compound 1. The mixture was incubated for 30 minutes at room temperature (RT), then 40 μL of this mixture were transferred into a black 384-well plate assay (Perkin-Elmer) and mixed with 10 μL of 100 μM ThT in 250 mM glycine (both from Sigma-Aldrich) in PBS. Fluorescence (relative fluorescence units; RFU) was measured in monoplicate or duplicate on a Tecan reader (excitation: 440 nm; emission: 485 nm). Percentage of K18 disaggregation was then calculated and half maximal effective concentration (EC50) was determined using GraphPad Prism version 8 (GraphPad Software) assuming a one-binding site fitting model, see Table 3 and Table 4.

T2 sequence (P10636 561-689): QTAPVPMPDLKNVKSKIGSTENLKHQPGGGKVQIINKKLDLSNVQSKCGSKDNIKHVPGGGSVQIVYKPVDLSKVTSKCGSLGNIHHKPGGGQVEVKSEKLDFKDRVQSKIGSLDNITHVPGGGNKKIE

Compound	EC50 [µM]
c1cc2[nH]cc(C3CCN(c4ccc5oc(N6CCOCC6)nc5c4)CC3)c2cn1 [Example 55, 5-(4-(1H-pyrrolo[3,2-c]pyridin-3-yl)piperidin-1-yl)-2-morpholinobenzo[d]oxazole]	1 to 10
c1ccc2c(C3CCN(c4cc5nc(N6CCOCC6)sc5cn4)CC3)c[nH]c2c1 [Example 67, 4-(6-(4-(1H-indol-3-yl)piperidin-1-yl)thiazolo[5,4-c]pyridin-2-yl)morpholine]	< 1
O=C(Nc1ccc2nc(N3CCOCC3)oc2c1)c1c[nH]c2ccccc12 [Example 14, N-(2-morpholinobenzo[d]oxazol-6-yl)-1H-indole-3-carboxamide]	10 to 50
c1ccc2c(C3CCN(c4cc5nc(N6CCOCC6)sc5cn4)CC3)n[nH]c2c1 [Example 66, 4-(6-(4-(1H-indazol-3-yl)piperidin-1-yl)thiazolo[5,4-c]pyridin-2-yl)morpholine]	< 1
c1cc2c(C3CCN(c4ccc5oc(N6CCOCC6)nc5c4)CC3)c[nH]c2cn1 [Example 54, 5-(4-(1H-pyrrolo[2,3-c]pyridin-3-yl)piperidin-1-yl)-2-morpholinobenzo[d]oxazole]	10 to 50
O=C(Nc1ccc2nc(N3CCOCC3)oc2c1)c1c[nH]c2ncccc12 [Example 15, N-(2-morpholinobenzo[d]oxazol-6-yl)-1H-pyrrolo[2,3-b]pyridine-3-carboxamide]	10 to 50
c1ccc2c(C3CCN(c4ccc5nc(N6CCOCC6)sc5n4)CC3)c[nH]c2c1 [Example 108, 4-(5-(4-(1H-indol-3-yl)piperidin-1-yl)thiazolo[5,4-b]pyridin-2-yl)morpholine hydrochloride]	10 to 50
c1ccn2c(C3CCN(c4ccc5nc(N6CCOCC6)oc5c4)CC3)cnc2c1 [Example 59, 6-(4-(imidazo[1,2-a]pyridin-3-yl)piperidin-1-yl)-2-morpholinobenzo[d]oxazole]	1 to 10
c1ccc2c(C3CCN(c4ccc5nc(N6CCOCC6)oc5c4)CC3)c[nH]c2c1 [Example 52, 6-(4-(1H-indol-3-yl)piperidin-1-yl)-2-morpholinobenzo[d]oxazole]	10 to 50

More lines, now with the values ahead:

EC50 [µM]	Compound
10 to 50	c1ccc2c(C3CCN(c4cc5oc(N6CCOCC6)nc5cn4)CC3)c[nH]c2c1 [Example 58, 6-(4-(1H-indol-3-yl)piperidin-1-yl)-2-morpholinooxazolo[4,5-c]pyridine]
10 to 50	Cn1cc(C2CCN(c3ccc4oc(N5CCOCC5)nc4c3)CC2)c2cc(F)cnc21 [Example 23, 5-(4-(5-fluoro-1-methyl-1H-pyrrolo[2,3-b]pyridin-3-yl)piperidin-1-yl)-2-morpholinobenzo[d]oxazole]
1 to 10	Cn1cc(C2CCN(c3ccc4oc(N5CCOCC5)nc4c3)C2)c2cc(F)cnc21 (stereo not shown) [Example 34, 5-(3-(5-fluoro-1-methyl-1H-pyrrolo[2,3-b]pyridin-3-yl)pyrrolidin-1-yl)-2-morpholinobenzo[d]oxazole]
